Data taken from the supplement of paper PMC10307832.

Tests used:
Assay in all cases: relative viability (nuclei count vs DMSO), 5 days (fraction); higher = more cells survive
ABC-1 = tested on: ABC-1
Procedure, shortened: (§1)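 Relative viability is defined as nuclei in treated wells over nuclei in vehicle wells. Duplicate plates were run and medians reported. Lung cancer cell lines in 1536-well plates were dosed by pin tool one day after seeding, with one drug or with a fixed anchor-drug dose plus five library-drug doses (not always all listed) in √10 steps, and nuclei were counted after 5 days.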

CAL-12T = tested on: CAL-12T
Procedure, shortened: as §1

ChaGo-K-1 = tested on: ChaGo-K-1
Procedure, shortened: as §1

HCC-366 = tested on: HCC-366
Procedure, shortened: as §1

HCC-78 = tested on: HCC-78
Procedure, shortened: as §1

LC-2-ad = tested on: LC-2-ad
Procedure, shortened: as §1

LOU-NH91 = tested on: LOU-NH91
Procedure, shortened: as §1

LU99A = tested on: LU99A
Procedure, shortened: as §1

NCI-H1395 = tested on: NCI-H1395
Procedure, shortened: as §1

NCI-H1651 = tested on: NCI-H1651
Procedure, shortened: as §1

NCI-H1755 = tested on: NCI-H1755
Procedure, shortened: as §1

NCI-H1793 = tested on: NCI-H1793
Procedure, shortened: as §1

NCI-H1944 = tested on: NCI-H1944
Procedure, shortened: as §1

NCI-H2087 = tested on: NCI-H2087
Procedure, shortened: as §1

NCI-H2170 = tested on: NCI-H2170
Procedure, shortened: as §1

NCI-H2405 = tested on: NCI-H2405
Procedure, shortened: as §1

NCI-H3122 = tested on: NCI-H3122
Procedure, shortened: as §1

NCI-H460 = tested on: NCI-H460
Procedure, shortened: as §1

PC-3 [JPC-3] = tested on: PC-3 [JPC-3]
Procedure, shortened: as §1

RERF-LC-KJ = tested on: RERF-LC-KJ
Procedure, shortened: as §1

Nc1ccn([C@@H]2O[C@H](CO)[C@@H](O)[C@@H]2O)c(=O)n1 [Cytarabine] + NC(=O)Nc1cc(-c2cccc(F)c2)sc1C(=O)N[C@H]1CCCNC1 [AZD7762] (partner 0.2 µM) gave a relative viability (ABC-1; first compound 0.005 µM) of 0.626, a relative viability (ABC-1; first compound 0.01581 µM) of 0.899 and a relative viability (ABC-1; first compound 0.05 µM) of 0.745. The relative viability (ABC-1; first compound 0.1581 µM) was 0.744, the relative viability (ABC-1; first compound 0.5 µM) was 0.666 and the relative viability (CAL-12T; first compound 0.005 µM) was 0.611. It also gave a relative viability (CAL-12T; first compound 0.01581 µM) of 0.405, a relative viability (CAL-12T; first compound 0.05 µM) of 0.248 and a relative viability (CAL-12T; first compound 0.1581 µM) of 0.208. For the same compound, the relative viability (CAL-12T; first compound 0.5 µM) was 0.221, the relative viability (ChaGo-K-1; first compound 0.005 µM) was 0.877 and the relative viability (ChaGo-K-1; first compound 0.01581 µM) was 0.643. For the same compound, the relative viability (ChaGo-K-1; first compound 0.05 µM) was 0.439, the relative viability (ChaGo-K-1; first compound 0.1581 µM) was 0.249 and the relative viability (ChaGo-K-1; first compound 0.5 µM) was 0.199. It also gave a relative viability (HCC-366; first compound 0.005 µM) of 0.139, a relative viability (HCC-366; first compound 0.01581 µM) of 0.0915 and a relative viability (HCC-366; first compound 0.05 µM) of 0.107. The relative viability (HCC-366; first compound 0.1581 µM) was 0.0525, the relative viability (HCC-366; first compound 0.5 µM) was 0.038 and the relative viability (HCC-78; first compound 0.005 µM) was 0.614. For the same compound, the relative viability (HCC-78; first compound 0.01581 µM) was 0.779, the relative viability (HCC-78; first compound 0.05 µM) was 0.486 and the relative viability (HCC-78; first compound 0.1581 µM) was 0.374. It also gave a relative viability (HCC-78; first compound 0.5 µM) of 0.314, a relative viability (LC-2-ad; first compound 0.005 µM) of 0.811 and a relative viability (LC-2-ad; first compound 0.01581 µM) of 0.681. It also gave a relative viability (LC-2-ad; first compound 0.05 µM) of 0.674, a relative viability (LC-2-ad; first compound 0.1581 µM) of 0.245 and a relative viability (LC-2-ad; first compound 0.5 µM) of 0.208. For the same compound, the relative viability (LOU-NH91; first compound 0.005 µM) was 0.645, the relative viability (LOU-NH91; first compound 0.01581 µM) was 0.803 and the relative viability (LOU-NH91; first compound 0.05 µM) was 0.708. For the same compound, the relative viability (LOU-NH91; first compound 0.1581 µM) was 0.548, the relative viability (LOU-NH91; first compound 0.5 µM) was 0.252 and the relative viability (LU99A; first compound 0.005 µM) was 0.444. For the same compound, the relative viability (LU99A; first compound 0.01581 µM) was 0.362, the relative viability (LU99A; first compound 0.05 µM) was 0.305 and the relative viability (LU99A; first compound 0.1581 µM) was 0.352. The relative viability (LU99A; first compound 0.5 µM) was 0.115, the relative viability (NCI-H1395; first compound 0.005 µM) was 0.383 and the relative viability (NCI-H1395; first compound 0.01581 µM) was 0.39. For the same compound, the relative viability (NCI-H1395; first compound 0.05 µM) was 0.331, the relative viability (NCI-H1395; first compound 0.1581 µM) was 0.364 and the relative viability (NCI-H1395; first compound 0.5 µM) was 0.351. It also gave a relative viability (NCI-H1651; first compound 0.005 µM) of 0.484, a relative viability (NCI-H1651; first compound 0.01581 µM) of 0.447 and a relative viability (NCI-H1651; first compound 0.05 µM) of 0.297. The relative viability (NCI-H1651; first compound 0.1581 µM) was 0.114, the relative viability (NCI-H1651; first compound 0.5 µM) was 0.0958 and the relative viability (NCI-H1755; first compound 0.005 µM) was 0.501. The relative viability (NCI-H1755; first compound 0.01581 µM) was 0.314, the relative viability (NCI-H1755; first compound 0.05 µM) was 0.334 and the relative viability (NCI-H1755; first compound 0.1581 µM) was 0.372. The relative viability (NCI-H1755; first compound 0.5 µM) was 0.298, the relative viability (NCI-H1793; first compound 0.005 µM) was 0.304 and the relative viability (NCI-H1793; first compound 0.01581 µM) was 0.417. The relative viability (NCI-H1793; first compound 0.05 µM) was 0.341, the relative viability (NCI-H1793; first compound 0.1581 µM) was 0.149 and the relative viability (NCI-H1793; first compound 0.5 µM) was 0.111. It also gave a relative viability (NCI-H1944; first compound 0.005 µM) of 0.353, a relative viability (NCI-H1944; first compound 0.01581 µM) of 0.204 and a relative viability (NCI-H1944; first compound 0.05 µM) of 0.159. For the same compound, the relative viability (NCI-H1944; first compound 0.1581 µM) was 0.12, the relative viability (NCI-H1944; first compound 0.5 µM) was 0.135 and the relative viability (NCI-H2087; first compound 0.005 µM) was 1.28. For the same compound, the relative viability (NCI-H2087; first compound 0.01581 µM) was 1.56, the relative viability (NCI-H2087; first compound 0.05 µM) was 1.11 and the relative viability (NCI-H2087; first compound 0.1581 µM) was 0.709. It also gave a relative viability (NCI-H2087; first compound 0.5 µM) of 0.231, a relative viability (NCI-H2170; first compound 0.005 µM) of 0.666 and a relative viability (NCI-H2170; first compound 0.01581 µM) of 0.515. It also gave a relative viability (NCI-H2170; first compound 0.05 µM) of 0.347, a relative viability (NCI-H2170; first compound 0.1581 µM) of 0.173 and a relative viability (NCI-H2170; first compound 0.5 µM) of 0.136. For the same compound, the relative viability (NCI-H2405; first compound 0.005 µM) was 0.612, the relative viability (NCI-H2405; first compound 0.01581 µM) was 0.454 and the relative viability (NCI-H2405; first compound 0.05 µM) was 0.445. The relative viability (NCI-H2405; first compound 0.1581 µM) was 0.249, the relative viability (NCI-H2405; first compound 0.5 µM) was 0.217 and the relative viability (NCI-H3122; first compound 0.005 µM) was 0.943. It also gave a relative viability (NCI-H3122; first compound 0.01581 µM) of 0.585, a relative viability (NCI-H3122; first compound 0.05 µM) of 0.397 and a relative viability (NCI-H3122; first compound 0.1581 µM) of 0.184. For the same compound, the relative viability (NCI-H3122; first compound 0.5 µM) was 0.138, the relative viability (NCI-H460; first compound 0.005 µM) was 0.209 and the relative viability (NCI-H460; first compound 0.01581 µM) was 0.0904. The relative viability (NCI-H460; first compound 0.05 µM) was 0.0497, the relative viability (NCI-H460; first compound 0.1581 µM) was 0.0319 and the relative viability (NCI-H460; first compound 0.5 µM) was 0.0286. For the same compound, the relative viability (PC-3 [JPC-3]; first compound 0.005 µM) was 0.746, the relative viability (PC-3 [JPC-3]; first compound 0.01581 µM) was 0.809 and the relative viability (PC-3 [JPC-3]; first compound 0.05 µM) was 0.676. For the same compound, the relative viability (PC-3 [JPC-3]; first compound 0.1581 µM) was 0.395, the relative viability (PC-3 [JPC-3]; first compound 0.5 µM) was 0.425 and the relative viability (RERF-LC-KJ; first compound 0.005 µM) was 0.957. The relative viability (RERF-LC-KJ; first compound 0.01581 µM) was 0.941, the relative viability (RERF-LC-KJ; first compound 0.05 µM) was 0.51 and the relative viability (RERF-LC-KJ; first compound 0.1581 µM) was 0.381. For the same compound, the relative viability (RERF-LC-KJ; first compound 0.5 µM) was 0.322.
